Measurements as given in PubChem BioAssay (NCI).
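In this assay, cells in 96-well plates receive the compound at five concentrations for 48 hours. Endpoints are linearly interpolated between the surrounding concentrations. At the TGI there is no net growth.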

Key:
Assay in all cases: inhibition of tumour cell growth, NCI panel, 48 h
[1] = tested on: 786-0 renal
[2] = tested on: A498 renal
[3] = tested on: A549 NSCLC
[4] = tested on: ACHN renal
[5] = tested on: BT-549 breast
[6] = tested on: CAKI-1 renal
[7] = tested on: CCRF-CEM leukemia
[8] = tested on: COLO 205 colon
[9] = tested on: DU-145 prostate
[10] = tested on: EKVX NSCLC
[11] = tested on: HCT-116 colon
[12] = tested on: HCT-15 colon
[13] = tested on: HL-60(TB) leukemia
[14] = tested on: HOP-62 NSCLC
[15] = tested on: HS 578T breast
[16] = tested on: HT29 colon
[17] = tested on: IGROV1 ovarian
[18] = tested on: K-562 leukemia
[19] = tested on: KM12 colon
[20] = tested on: LOX IMVI melanoma
[21] = tested on: M14 melanoma
[22] = tested on: MALME-3M melanoma
[23] = tested on: MCF7 breast
[24] = tested on: MDA-MB-435
[25] = tested on: MDA-N
[26] = tested on: MOLT-4 leukemia
[27] = tested on: NCI-H226 lung
[28] = tested on: NCI-H23 lung
[29] = tested on: NCI-H460 lung
[30] = tested on: NCI-H522 lung
[31] = tested on: NCI/ADR-RES ovarian
[32] = tested on: OVCAR-3 ovarian
[33] = tested on: OVCAR-4 ovarian
[34] = tested on: OVCAR-5 ovarian
[35] = tested on: OVCAR-8 ovarian
[36] = tested on: PC-3 prostate
[37] = tested on: RPMI-8226 leukemia
[38] = tested on: RXF 393 renal
[39] = tested on: SF-268 CNS
[40] = tested on: SF-295 CNS
[41] = tested on: SF-539 CNS
[42] = tested on: SK-MEL-2 melanoma
[43] = tested on: SK-MEL-5 melanoma
[44] = tested on: SK-OV-3 ovarian
[45] = tested on: SN12C renal
[46] = tested on: SNB-19 CNS
[47] = tested on: SNB-75 CNS
[48] = tested on: SR leukemia
[49] = tested on: SW-620 colon
[50] = tested on: T-47D breast
[51] = tested on: TK-10 renal
[52] = tested on: U251 CNS
[53] = tested on: UACC-257 melanoma
[54] = tested on: UACC-62 melanoma
[55] = tested on: UO-31 renal
[56] = tested on: HCC-2998 colon
[57] = tested on: HOP-92 NSCLC
[58] = tested on: MDA-MB-231 breast
[59] = tested on: SK-MEL-28 melanoma

Measured: TGI

CC(C)(C)[Si](C)(C)OCCOCn1cc(F)c(=O)[nH]c1=O
not listed: [56] | [57] | [58] | [59]
> 100 µM: all other assays above

O=C(Cc1ccccc1)NNc1nc(NNC(=O)c2ccncc2)nc(Nc2cccc(Cl)c2)n1
not listed: [2] | [4] | [11] | [24] | [27] | [30] | [32] | [34] | [36] | [38] | [40] | [42] | [46] | [55]
> 10 µM: all other assays above
